Reference: US20250129084A1, “Compounds” (GlaxoSmithKline Intellectual Property Development Limited, priority 2022, published 2025)
Values after ≈ are worked out from the molar mass of the structure shown. Read-outs that look alike come from different tables or passages of the source.

How the values were obtained:
[1] = system: Mycobacterium tuberculosis H37Rv; assay: Mycobacterium tuberculosis in vitro H37Rv extracellular inhibition assay (OD readout); format: cell-based; details: 192 h, read-out: Assay 2 MIC (μM) extracellular
[2] = system: Mycobacterium tuberculosis H37Rv in human macrophages THP-1; assay: Mycobacterium tuberculosis in vitro H37Rv in human macrophages THP-1 inhibition assay (intracellular assay); format: cell-based; details: read-out: Assay 3 MIC (μM) intracellular
From the text: Assay 3 Mycobacterium tuberculosis In Vitro H37Rv in Human Macrophages THP-1 Inhibition Assay
This ex-vivo assay may represent physiological conditions that mimic disease and take into consideration the favourable contribution of host cells.

[3] = system: Mycobacterium tuberculosis H37Rv; assay: Acute Mycobacterium tuberculosis in vivo assay
[4] = biological target: T1, Mycobacterium tuberculosis lysine tRNA synthetase (MtKRS) (Mycobacterium tuberculosis, UniProt P9WFU9); assay: biochemical; details: 40 nM MtKRS, 30 μM ATP, 12 μM L-lysine, 20 hours incubation; read-out: Assay 1 Mtb KRS
T1 construct: made in house; host or cells: E. coli BL21 (DE3)

[5] = H37Rv in THP-1 human macrophages

T1 sequence (P9WFU9 whole entry): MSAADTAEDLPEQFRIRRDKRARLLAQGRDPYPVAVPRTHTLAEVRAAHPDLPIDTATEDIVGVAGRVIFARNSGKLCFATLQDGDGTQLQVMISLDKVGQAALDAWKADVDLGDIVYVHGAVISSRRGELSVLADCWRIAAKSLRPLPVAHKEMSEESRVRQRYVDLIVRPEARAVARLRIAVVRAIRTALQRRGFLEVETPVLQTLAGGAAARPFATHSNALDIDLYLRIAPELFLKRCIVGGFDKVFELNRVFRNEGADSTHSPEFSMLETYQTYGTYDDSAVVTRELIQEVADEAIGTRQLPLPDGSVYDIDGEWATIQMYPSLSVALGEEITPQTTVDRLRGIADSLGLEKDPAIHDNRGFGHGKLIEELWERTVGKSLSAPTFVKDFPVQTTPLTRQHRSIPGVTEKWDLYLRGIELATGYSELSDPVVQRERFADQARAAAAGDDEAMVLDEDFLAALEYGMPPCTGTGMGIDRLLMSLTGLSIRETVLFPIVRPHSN

SMILES | MIC ([1]; H37RV) [µM] | MIC ([2]; H37RV) [µM] | Log PCR reduction in acute efficacy study @ 50 mg/kg ([3]; C57BL/6 mice, 50 mg/kg oral once a day, day 1 to day 8) | Assay 4 ED99 ([3]; female C57BL/6 mice, intratracheal infection, oral once a day day 1 to day 8, lungs harvested day 9) [mg/kg] | IC50 [4] [nM] | MIC ([1]; H37Rv, 7H9 medium, 8 days, Abs 590 nm) [µM] | MIC [2, 5] [µM] | CFU reduction @12 mg/kg (acute efficacy study) ([3]; C57BL/6 mice, 12 mg/kg oral once a day, day 1 to day 8)
CCOc1nc(N)nc2c1C(=O)N([C@@H]1CCCCC[C@@H]1O)C2 [Example 46, 2-Amino-4-ethoxy-6-((1R,2S)-2-hydroxycycloheptyl)-6,7-dihydro-5H-pyrrolo[3,4-d]pyrimidin-5-one] | 0.5 (≈ 0.153 µg/mL) | 1.1 (≈ 0.337 µg/mL) | 3 | 7 | – | – | – | –
CNc1nc(N)nc2c1C(=O)N([C@H]1[C@@H](O)CCCCC1(F)F)C2 [Example 51, 2-Amino-6-((1S,7S)-2,2-difluoro-7-hydroxycycloheptyl)-4-(methylamino)-6,7-dihydro-5H-pyrrolo[3,4-d]pyrimidin-5-one] | 1 (≈ 0.327 µg/mL) | 0.3 (≈ 0.0982 µg/mL) | – | – | 200 | – | – | –
Nc1nc2c(c(-n3cccn3)n1)C(=O)N([C@H]1[C@@H](O)CCCCC1(F)F)C2 [Example 52, 2-Amino-6-((1S,7S)-2,2-difluoro-7-hydroxycycloheptyl)-4-(1H-pyrazol-1-yl)-6,7-dihydro-5H-pyrrolo[3,4-d]pyrimidin-5-one] | – | – | – | – | 80 | 0.1 (≈ 0.0364 µg/mL) | 0.06 (≈ 0.0219 µg/mL) | 0.4 (CFU reduction
CCOc1cnn(-c2nc(N)nc3c2C(=O)N([C@@H]2CCCC[C@@H]2O)C3)c1 [Example 53, 2-amino-4-(4-ethoxy-1H-pyrazol-1-yl)-6-((1R,2S)-2-hydroxycyclohexyl)-6,7-dihydro-5H-pyrrolo[3,4-d]pyrimidin-5-one] | – | – | – | – | 300 | – | 0.3 (≈ 0.108 µg/mL) | –
CCOc1cnn(-c2nc(N)nc3c2C(=O)N([C@H]2CCCCC2(F)F)C3)c1 [Example 54, (S)-2-amino-6-(2,2-difluorocyclohexyl)-4-(4-ethoxy-1H-pyrazol-1-yl)-6,7-dihydro-5H-pyrrolo[3,4-d]pyrimidin-5-one] | – | – | – | – | 200 | – | – | –
